Experimental data published in ChEMBL document CHEMBL1201862, “PubChem BioAssay data set” (2004).
Active and inactive are the calls of the source.

Experiments:
[1] = target: T1, Short transient receptor potential channel 4 (Mus musculus, UniProt Q9QUQ5); assay: block of DAMGO-driven TRPC4 calcium entry – cell-based, HEK293 TRPC4/mu-opioid, Fluo-4 calcium, dose response (AID 434942); format: functional;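 note: potency of inhibitors blocking the TRPC4 calcium response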
T1 sequence (Q9QUQ5 whole entry): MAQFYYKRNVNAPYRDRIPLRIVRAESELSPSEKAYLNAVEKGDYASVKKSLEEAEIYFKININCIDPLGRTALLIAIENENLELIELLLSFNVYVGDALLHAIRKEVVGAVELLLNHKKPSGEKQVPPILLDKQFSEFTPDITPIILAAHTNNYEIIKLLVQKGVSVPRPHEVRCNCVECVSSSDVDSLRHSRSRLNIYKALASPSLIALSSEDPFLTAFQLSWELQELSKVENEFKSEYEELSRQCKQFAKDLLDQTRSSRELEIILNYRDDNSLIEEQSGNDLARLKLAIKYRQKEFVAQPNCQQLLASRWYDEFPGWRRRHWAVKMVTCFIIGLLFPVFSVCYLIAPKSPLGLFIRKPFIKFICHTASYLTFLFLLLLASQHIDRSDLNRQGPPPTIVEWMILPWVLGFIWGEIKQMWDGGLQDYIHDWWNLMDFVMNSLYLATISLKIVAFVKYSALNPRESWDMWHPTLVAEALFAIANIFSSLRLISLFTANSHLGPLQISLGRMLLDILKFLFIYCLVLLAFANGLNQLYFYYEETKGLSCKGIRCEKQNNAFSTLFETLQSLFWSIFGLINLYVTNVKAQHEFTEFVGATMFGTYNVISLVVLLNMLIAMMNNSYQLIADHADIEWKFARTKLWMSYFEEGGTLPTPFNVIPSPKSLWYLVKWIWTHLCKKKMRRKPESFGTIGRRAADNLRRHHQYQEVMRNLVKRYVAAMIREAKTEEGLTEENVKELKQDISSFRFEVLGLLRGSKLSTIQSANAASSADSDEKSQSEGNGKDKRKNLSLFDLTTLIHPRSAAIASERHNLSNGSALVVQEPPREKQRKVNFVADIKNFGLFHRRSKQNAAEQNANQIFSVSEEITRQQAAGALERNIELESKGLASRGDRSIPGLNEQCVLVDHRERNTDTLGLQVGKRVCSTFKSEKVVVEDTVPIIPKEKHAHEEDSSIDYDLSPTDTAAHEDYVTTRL

BJ [2] = assay: cells; format: functional, cell-based; details: Homo sapiens
BJ [3] = assay: BJ-TERT fibroblast viability loss – cell-based, RAS-independent, luminescence, dose response (AID 1933); format: functional; details: Homo sapiens
BJ [4] = assay: BJ-TERT-LT-ST fibroblast viability loss – cell-based, RAS-independent, luminescence, dose response (AID 1935); format: functional; details: Homo sapiens;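 note: BJ fibroblasts immortalized with TERT plus LT and ST oncogenes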
BJ [5] = assay: growth inhibition of engineered Ras-driven BJ cells – cell-based, alamar blue fluorescence, cherrypicked samples, dose response (AID 2631); format: functional; details: Homo sapiens;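 note: confirmatory dose-response assay in RAS-dependent BJ fibroblasts engineered with TERT, LT and ST, with cytotoxicity read by fluorescence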
[6] = DRD fibroblast viability loss – cell-based, non-viral oncogenic, luminescence, dose response (AID 1934); format: functional; details: Homo sapiens
Hexokinase HKDC1 = target: T2, Hexokinase HKDC1 (Homo sapiens, UniProt Q2TB90); assay: SAR analysis of small molecule inhibitors of hexokinase domain containing I (HKDC1). [Related pubchem assays (depositor defined):AID493160, AID493190]; format: functional
T2 sequence (Q2TB90 whole entry): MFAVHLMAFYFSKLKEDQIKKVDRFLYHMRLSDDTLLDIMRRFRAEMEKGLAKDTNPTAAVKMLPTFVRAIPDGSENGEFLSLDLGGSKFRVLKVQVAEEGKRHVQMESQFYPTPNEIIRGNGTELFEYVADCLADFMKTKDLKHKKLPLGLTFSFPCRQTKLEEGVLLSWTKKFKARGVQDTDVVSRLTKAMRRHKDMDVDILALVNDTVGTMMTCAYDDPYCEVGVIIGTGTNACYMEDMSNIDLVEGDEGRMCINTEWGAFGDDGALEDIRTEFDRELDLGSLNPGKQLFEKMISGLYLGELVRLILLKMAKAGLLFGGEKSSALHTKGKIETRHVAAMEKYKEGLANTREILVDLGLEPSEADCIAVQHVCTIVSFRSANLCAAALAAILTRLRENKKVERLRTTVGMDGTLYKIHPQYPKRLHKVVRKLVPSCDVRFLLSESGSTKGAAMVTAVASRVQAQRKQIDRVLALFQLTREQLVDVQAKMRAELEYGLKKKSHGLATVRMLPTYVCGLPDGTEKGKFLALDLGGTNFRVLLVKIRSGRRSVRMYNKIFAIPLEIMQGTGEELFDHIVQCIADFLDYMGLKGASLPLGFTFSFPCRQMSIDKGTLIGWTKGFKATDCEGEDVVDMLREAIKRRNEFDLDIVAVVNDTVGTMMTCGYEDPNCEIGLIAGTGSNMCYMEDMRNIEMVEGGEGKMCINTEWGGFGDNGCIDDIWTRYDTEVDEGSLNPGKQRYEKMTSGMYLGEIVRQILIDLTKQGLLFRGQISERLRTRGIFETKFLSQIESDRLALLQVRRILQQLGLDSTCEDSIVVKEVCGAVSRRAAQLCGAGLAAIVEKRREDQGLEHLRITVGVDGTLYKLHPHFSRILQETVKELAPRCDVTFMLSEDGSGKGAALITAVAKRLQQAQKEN

Hexokinase-1 = target: T3, Hexokinase-1 (Homo sapiens, UniProt P19367); assay: SAR analysis of small molecule inhibitors of hexokinase domain containing I (HKDC1) in the hexokinase 1 selectivity assay. [Related pubchem assays (depositor defined):AID493160, AID493190]; format: functional
T3 sequence (P19367 whole entry): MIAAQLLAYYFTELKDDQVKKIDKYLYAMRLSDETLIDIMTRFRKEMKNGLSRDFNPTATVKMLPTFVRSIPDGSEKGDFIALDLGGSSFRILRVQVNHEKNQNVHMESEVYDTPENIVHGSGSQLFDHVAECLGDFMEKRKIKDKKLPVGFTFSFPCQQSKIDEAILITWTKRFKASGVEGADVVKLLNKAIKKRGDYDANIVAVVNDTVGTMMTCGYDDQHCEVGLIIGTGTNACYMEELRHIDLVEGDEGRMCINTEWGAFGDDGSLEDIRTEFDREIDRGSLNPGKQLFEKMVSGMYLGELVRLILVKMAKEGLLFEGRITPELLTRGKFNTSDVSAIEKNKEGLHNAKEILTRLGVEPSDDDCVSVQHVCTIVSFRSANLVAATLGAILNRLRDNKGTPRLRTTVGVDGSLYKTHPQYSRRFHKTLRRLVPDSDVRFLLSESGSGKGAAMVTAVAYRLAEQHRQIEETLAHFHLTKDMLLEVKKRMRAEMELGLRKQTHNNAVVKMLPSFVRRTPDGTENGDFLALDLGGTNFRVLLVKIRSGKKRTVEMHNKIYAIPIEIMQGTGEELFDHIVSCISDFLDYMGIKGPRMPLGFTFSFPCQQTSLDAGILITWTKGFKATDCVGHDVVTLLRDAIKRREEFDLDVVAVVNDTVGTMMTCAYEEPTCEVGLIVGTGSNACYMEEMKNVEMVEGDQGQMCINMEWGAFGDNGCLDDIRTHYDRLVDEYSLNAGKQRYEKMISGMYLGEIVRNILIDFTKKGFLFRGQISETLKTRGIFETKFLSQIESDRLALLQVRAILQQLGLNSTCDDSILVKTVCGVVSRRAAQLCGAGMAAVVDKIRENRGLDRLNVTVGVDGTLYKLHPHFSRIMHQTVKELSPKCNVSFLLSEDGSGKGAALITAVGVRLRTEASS

HEK293 [7] = assay: HEK293T cell viability loss, resazurin readout – resazurin fluorescence, cytotoxicity control for NF-kB activator project, SAR follow-up (AID 493251); format: functional, cell-based; details: Homo sapiens
HEK293 [8] = assay: SAR Analysis of small molecule inhibitors of T-cell specific antigen receptor-induced NF-kB activation in a HEK-293T cell line using a luminescence assay - Set 2. [Related pubchem assays (depositor defined):AID435003, AID435012, AID489026]; format: functional, cell-based; details: Homo sapiens
Jurkat = assay: SAR Analysis of small molecule inhibitors of T-cell specific antigen receptor-induced NF-kB activation in a Jurkat cell line using a luminescence assay - Set 2. [Related pubchem assays (depositor defined):AID435003, AID435012, AID465]; format: functional, cell-based; details: Homo sapiens
Protein skinhead-1 = target: T4, Protein skinhead-1 (Caenorhabditis elegans, UniProt P34707); format: functional
T4 sequence (P34707 whole entry): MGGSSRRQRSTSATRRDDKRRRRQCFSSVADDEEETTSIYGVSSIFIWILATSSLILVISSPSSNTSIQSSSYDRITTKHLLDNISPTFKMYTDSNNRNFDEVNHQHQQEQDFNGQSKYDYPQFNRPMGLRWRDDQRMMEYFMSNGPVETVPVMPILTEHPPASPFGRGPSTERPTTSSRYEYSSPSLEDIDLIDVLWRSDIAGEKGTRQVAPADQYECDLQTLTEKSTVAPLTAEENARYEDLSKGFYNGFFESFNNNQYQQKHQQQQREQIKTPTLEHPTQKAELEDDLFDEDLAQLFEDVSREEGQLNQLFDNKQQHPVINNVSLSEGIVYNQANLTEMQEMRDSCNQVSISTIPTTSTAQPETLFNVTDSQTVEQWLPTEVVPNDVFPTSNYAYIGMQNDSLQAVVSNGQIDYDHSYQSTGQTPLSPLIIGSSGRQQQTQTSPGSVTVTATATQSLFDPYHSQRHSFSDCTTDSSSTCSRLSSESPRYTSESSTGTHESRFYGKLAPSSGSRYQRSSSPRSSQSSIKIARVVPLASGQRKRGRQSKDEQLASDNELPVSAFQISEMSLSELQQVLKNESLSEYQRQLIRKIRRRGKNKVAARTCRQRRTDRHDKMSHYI

[9] = target: T5, Endoribonuclease toxin MazF (Escherichia coli K-12, UniProt P0AE70); assay: substrate-only fluorescence increase artefacts – biochemical, single-stranded RNase substrate, counter-screen for MazEF activator project, dose response (AID 588502); format: functional
T5 sequence (P0AE70 whole entry): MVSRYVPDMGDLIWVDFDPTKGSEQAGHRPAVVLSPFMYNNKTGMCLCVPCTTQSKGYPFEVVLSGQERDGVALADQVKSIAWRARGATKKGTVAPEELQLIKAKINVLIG

[10] = Luminescence-based cell-based high throughput dose response assay to identify activators of the DAF-12 from the parasite S. stercoralis (ssDAF-12).; format: functional
HeLa = assay: toxicity to human HeLa cells – cell-based, 48 h, plate reader, cherry-picks, cytotoxicity control, dose response (AID 504942); format: functional
[11] = target: T6, Acyl-homoserine lactone acylase PvdQ (Pseudomonas aeruginosa (strain LESB58), UniProt Q9I194); assay: PvdQ acylase enzyme activity blockers – biochemical, fluorescence, plate reader and imaging, cherry-picks, dose response (AID 493231)
T6 sequence (Q9I194 whole entry): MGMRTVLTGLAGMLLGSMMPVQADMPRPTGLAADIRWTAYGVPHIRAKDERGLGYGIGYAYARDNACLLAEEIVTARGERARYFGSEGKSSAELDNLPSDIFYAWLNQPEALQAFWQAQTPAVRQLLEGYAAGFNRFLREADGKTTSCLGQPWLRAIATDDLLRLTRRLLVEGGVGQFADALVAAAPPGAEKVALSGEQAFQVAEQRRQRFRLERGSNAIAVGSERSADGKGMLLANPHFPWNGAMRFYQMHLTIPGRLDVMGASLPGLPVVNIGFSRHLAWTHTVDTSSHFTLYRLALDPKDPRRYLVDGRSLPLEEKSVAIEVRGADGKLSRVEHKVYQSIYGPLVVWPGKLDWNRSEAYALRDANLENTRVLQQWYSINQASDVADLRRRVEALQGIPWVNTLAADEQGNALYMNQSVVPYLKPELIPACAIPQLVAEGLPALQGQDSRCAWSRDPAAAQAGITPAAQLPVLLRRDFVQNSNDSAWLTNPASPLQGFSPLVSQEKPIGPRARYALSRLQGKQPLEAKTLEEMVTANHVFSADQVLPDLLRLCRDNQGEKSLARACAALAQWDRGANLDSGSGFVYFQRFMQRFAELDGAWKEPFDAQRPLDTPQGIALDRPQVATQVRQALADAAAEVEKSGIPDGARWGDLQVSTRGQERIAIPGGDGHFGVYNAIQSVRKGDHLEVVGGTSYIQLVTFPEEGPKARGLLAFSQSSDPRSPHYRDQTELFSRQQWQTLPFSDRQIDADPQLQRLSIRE

[12] = target: T5, Endoribonuclease toxin MazF; assay: activation of MazEF endoribonuclease cleavage – biochemical, fluorescence, single-stranded RNA substrate, uHTS hits, dose response (AID 588481); format: functional
[13] = target: T7, Oxysterols receptor LXR-beta (Homo sapiens, UniProt P55055); assay: LXR agonists, Gal4 luciferase reporter, dose response, counter-screen for ssDAF-12 agonist project, cell-based, luminescence, HEK293, S. stercoralis campaign (AID 720737); format: functional; details: read-out: IC50 (the source's name)
T7 sequence (P55055 whole entry): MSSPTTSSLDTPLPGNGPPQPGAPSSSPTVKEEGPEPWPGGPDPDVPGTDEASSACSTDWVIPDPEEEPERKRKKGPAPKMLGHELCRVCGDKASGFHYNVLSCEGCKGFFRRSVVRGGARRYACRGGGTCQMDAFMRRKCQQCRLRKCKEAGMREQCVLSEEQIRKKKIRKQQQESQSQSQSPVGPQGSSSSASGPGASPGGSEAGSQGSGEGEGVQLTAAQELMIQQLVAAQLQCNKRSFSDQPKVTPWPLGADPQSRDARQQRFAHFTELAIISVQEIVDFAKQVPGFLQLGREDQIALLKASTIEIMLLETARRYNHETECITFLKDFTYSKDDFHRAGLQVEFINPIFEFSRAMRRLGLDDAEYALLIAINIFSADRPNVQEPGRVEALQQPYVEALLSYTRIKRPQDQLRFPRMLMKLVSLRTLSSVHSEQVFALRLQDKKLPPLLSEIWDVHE

COC(=O)c1cccc(Nc2c3c(nc4ccccc24)CCC3)c1
EC50 [1]: 2.11 µM (active)
EC50 (BJ [2]): 18.2 µM (active)
EC50 (BJ [3]): 28.4 µM (active)
EC50 (BJ [4]): > 150 µM (inconclusive)
EC50 (BJ [5]): > 133 µM (inactive)
EC50 [6]: 19.2 µM (active)

Cc1cccc(/C=C/c2nc3ccccc3c(=O)n2Cc2ccccc2)c1
IC50 (Hexokinase HKDC1): > 80 µM (inactive)
IC50 (Hexokinase-1): > 80 µM (inactive)

Cc1ccc(C)c(NC(=O)c2ccc([N+](=O)[O-])o2)c1
IC50 (HEK293 [7]): > 80 µM (inactive)
IC50 (HEK293 [8]): 46.6 µM (inactive)
IC50 (Jurkat): 14.1 µM (active)

N#C/C(=C/c1ccco1)c1nc2ccccc2s1
IC50 (Protein skinhead-1): > 100 µM (inactive)
EC50 [9]: 54.8 µM (inactive)
IC50 [10]: > 67.5 µM (inactive)
AC50 (HeLa): 53.7 µM (active)
AC50 [11]: 12.5 µM (active)
EC50 [12]: 23.7 µM (inactive)
EC50 [13]: > 67.5 µM (inactive)
